# Data from patent publication US20220033405A1, “PHARMACEUTICAL COMPOSITION FOR PREVENTING OR TREATING CANCER CONTAINING PLK1 INHIBITOR AS ACTIVE INGREDIENT” (NATIONAL CANCER CENTER, priority 2018, published 2022).
# Experiments:
# [1] = target: T1, PBD of PLK1 (GST-tagged target protein) (Homo sapiens, UniProt P53350); assay: IC50 measurement by FP assay; assay type: binding; settings: FITC-labeled 1010pT peptide
# T1 construct: made in house
# Experimental: The IC50 of the compound was intended to be analyzed by performing the FP assay shown in Example 1 on the compound and the hit compound discovered by the primary and secondary compound screening and various derivatives thereof. For this purpose, a target protein to which GST-tag was bound was isolated using a GST resin, and 15 mg/ml of the pure target protein to which GST-tag was bound was obtained by finally performing gel filtration. The target protein was diluted with a reaction buffer and prepared at each of concentrations of 12 uM, 3 uM, and 1.5 uM, and an FITC-bound peptide (FITC-labeled 1010pT (GVLS-pT-LI-NH2)) stored in a brown tube was diluted with a reaction buffer and prepared at a concentration of 30 nM. Further, the compound at a concentration of 100 mM was diluted with a reaction buffer and prepared at each of 160.0 uM, 80.0 uM, 40.0 uM, 20.0 uM, 10.0 uM, 5.0 uM, 2.5 uM, 1.25 uM, 0.625 uM, 0.3125 uM, 0.15625 uM, and 0.0 uM. […] When the reaction was completed, the fluorescence polarization value was measured using Infinite F200 Pro (TECAN Group Ltd, Switzerland) after setting the excitation wavelength and the emission wavelength to 485 nm and 535 nm, respectively, and setting the G-Factor to 1.077. […] Binding curves were analyzed using Graphpad Prism (GraphPad Software, San Diego, Calif., USA).
# [2] = target: T2, PBD domain of PLK1 (PLK1-PBD protein) (Homo sapiens, UniProt P53350); assay: Compound screening by fluorescence polarization (FP) competition assay; assay type: binding; settings: FITC-labeled 1010pT peptide + PLK1-PBD; about 300 with no compound added
# T2 construct: a 4 μM PLK1-PBD protein
# T2 sequence (P53350 367-603 limits assumed): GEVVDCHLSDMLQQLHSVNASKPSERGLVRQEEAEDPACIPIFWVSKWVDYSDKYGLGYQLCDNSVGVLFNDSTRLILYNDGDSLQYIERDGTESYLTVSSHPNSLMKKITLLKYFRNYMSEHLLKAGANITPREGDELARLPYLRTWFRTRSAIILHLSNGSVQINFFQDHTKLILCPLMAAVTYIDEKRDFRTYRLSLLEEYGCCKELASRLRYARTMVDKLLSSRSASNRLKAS
# Experimental: For this purpose, a fluorescence polarization competition assay was performed by mixing a conjugate of a PBD site of PLK1 purified in a solution and a peptide (FITC-labeled 1010pT (GVLSpTLI-NH2)) to which FITC fluorescence was bound with a low molecular weight compound to be screened.
# More specifically, after a reaction was performed at room temperature for 30 minutes by preparing a 4 μM PLK1-PBD protein, a 10 nM peptide (FITC-labeled 1010pT (GVLSpTLI-NH2)), and a 20 μl candidate compound at each concentration and putting the respective components into a black 96-well plate for mixing, fluorescence polarization (mp) values were measured using Infinite F200 Pro (TECAN Group Ltd, Switzerland). An average value was derived by performing this experiment three times by the same method, and the excitation wavelength and the emission wavelength were set at 485 nm and 535 nm, respectively.
# [3] = system: SNU-449; assay: Cell cycle by flow cytometry, phospho-histone H3 (Ser10) staining; assay type: cell-based; settings: M2 20, 40, 80 μM, BI2536 20 nM
# Experimental: Flow cytometry equipment was used to confirm the effect on the cell cycle in the case of treatment with Compound 2 (M2). SNU-449, which is one of the liver cancer cell lines, were treated with Compound 2 (M2) at each of concentrations of 20, 40, and 80 μM after 1 day and 3 days, and were harvested after another 2 days.
# Furthermore, it was intended to more specifically stain a cell population that stopped in the metaphase of cell division using a phospho-histone H3 (Ser10) antibody capable of specifically staining only the cells that stopped in the metaphase of cell division. As a positive control, cells were treated with BI2536 known as a PLK1 kinase inhibitor at 20 nM and used to observe cells in the metaphase of cell division and an increase in the G2/M phase.
# [4] = system: HepG2 cell; assay: Apoptosis by annexin V-FITC / PI flow cytometry; assay type: cell-based; settings: HepG2, 3 days; M2 20 or 100 μM; BI2536 20 or 100 nM
# Experimental: To analyze the pattern of apoptosis by exposure to M2, HepG2 cell, a hepatocellular carcinoma cell line, were treated with 20 or 100 μM M2 and 20 or 100 nM BI2536 for 3 days. The apoptosis was detected by annexin V-fluorescein isothiocyanate (annexin V-FITC) and propidium iodide (PI) staining of necrotic and apoptosis cells. First, cells were harvested and washed once with PBS. The cells were then resuspended in a 100 μl binding buffer containing 4 μl of Annexin V (BD, 51-65874X) and PI (BD, 51-66211E). The cells were stained at 37° C. for 15 minutes in the dark and then analyzed using FACSan (BD, San Jose, Calif.). Data was analyzed using CELLQuest software (BD).
# [5] = system: HepG2 orthotopic xenograft; assay: Liver cancer orthotopic xenograft model (HepG2), 19 injections; assay type: in vivo, BalB/c nude mice; settings: M2 9.1 mg/kg, BI2536 1 mg/kg, 19 injections
# Experimental: 5×10^6 HepG2 cells, which are a hepatocellular carcinoma cell line, were injected into the back skin of BalB/c nude mice, and when a sufficient cancer tissue was formed about 3 weeks later, the tissue was removed, uniformly cut into 1 mm^3, and transplanted into the right median lobe of the liver by excising the abdomen within 1 cm.
# The doses of 9.1 mg/kg of M2 and 1 mg/kg of BI2536 were selected based on the present inventor's previous in vitro experiments on HCC cells. Administration began 7 days after cell injection, and an equivalent amount of DMSO for the highest concentration of drug was used as a solvent control for each experiment. Each drug was injected a total of 19 injections based on 5 times/week.
# [6] = system: HepG2 cells; assay: Cell viability after treatment (Hoechst 33342); assay type: cell-based; settings: HepG2, various concentrations, two treatments 48 hours apart
# Experimental: HepG2 cells, a hepatocellular carcinoma cell line, were plated with 4 to 6 replications at each hit compound concentration in a 96-well microtiter plate supplemented with a culture medium. The hit compound dissolved in DMSO was added the next day according to the design of experiments, and the number of seeded cells was determined by the cell density reaching 80% on the final day of the protocol treated as a cell control. After 24 hours of cell seeding, cells were treated with hit compounds (M2 and BI2536) at various concentrations, and 48 hours after primary treatment, the medium was aspirated and then secondary treatment was performed. After 48 hours, cell nuclei were visualized by 2.5 μM Hoechst 33342 staining at 37° C. for 30 minutes, then the medium was aspirated and washed with a fresh medium. The plate was read using Cytation™ 3 (BioTek, USA), the cell viability was analyzed, and the results were presented as a relative percentage of viable cells after treatment with the hit compound compared to the control treatment.
# [7] = system: PLK1; assay: PLK1 position in the cell (r-tubulin, PLK1, DAPI staining); assay type: cell-based
# [8] = Toxicity test, histopathological analysis of organs; assay type: in vivo, mouse; settings: 1, 5 and 10 mg/kg intraperitoneally 3 times weekly, 2 weeks
# Experimental: Compound 4 (M21) was diluted in 300 μl of PBS and intraperitoneally injected 3 times weekly at 1 mg/kg, 5 mg/kg and 10 mg/kg per body weight of a mouse, respectively, and DMSO diluted in 300 μl of PBS was intraperitoneally injected at 3% in the control. After 2 weeks, the lungs, heart, liver, kidneys, spleen and skin were removed by sacrificing mice, and fixed in a formalin solution.
# T1 sequence (P53350 367-603 limits assumed): as above
structure (smiles),measurement,setting,value
"O=C(O)c1ccc2[nH]c3nc(=O)[nH]c(=O)c-3nc2c1 [Compound 1, 2,4-Dioxo-1,2,3,4-tetrahydrobenzo[g]pteridine-7-carboxylic acid]",IC50,[1],~25 µM
same,fluorescence polarization value,[2],180 mp
"CC[C@@H]1C(=O)N(C)c2cnc(Nc3ccc(C(=O)NC4CCN(C)CC4)cc3OC)nc2N1C1CCCC1 [BI2536, reference compound]",proportion of polyploid cells,[3],remarkably increased
same,proportion of phospho-histone H3-positive cells,[3]; compared to CT,increase in the proportion
same,apoptosis cells,[4],apoptosis cells were increased
same,apoptosis with increasing dose,[4],apoptosis was increased in a dose-dependent manner
same,progression of the HCC xenograft calculated by the growth inhibition index,[5],suppressed the progression of the HCC xenograft
same,"growth of tumor cells (macroscopic morphology, MRI)",[5]; 5 times/week,the growth of tumor cells was suppressed
same,cell viability,[6],the relatively less the cell viability became
same,chromosome segregation,[7],abnormal chromosome segregation was observed
same,position of PLK1,[7]; middle stage of cell division,did not seem to make a relatively large difference
same,r-tubulin located in the centrosome (staining / position),[7]; middle stage of cell division,did not seem to make a relatively large difference
"Cn1c2nc(=O)[nH]c(=O)c-2nc2cc(C(F)(F)F)ccc21 [Compound 4, 10-methyl-7-(trifluoromethyl)-2H,3H,4H,10H-benzo[g]pteridine-2,4-dione]","histopathological analysis of lungs, heart, liver, kidneys, spleen and skin",[8],No change by separate acute toxicity was observed
